Molecules are shown by their SMILES.

The assay in a line: NF-keppaB Inhibitory Activity Evaluation Test: A549/NF-κB-luc cells (available from Panomics, Cat No. LR0051) were prepared at 375,000 cells/mL in the culture medium. The 375,000 cells/mL A549/NF-κB-luc cell suspension was seeded at 80 μL each on a white 96-well plate (available from Greiner, Cat No. 655073). One hour after seeding the cells, 10 μL of 2% DMSO solution (control) and each compound solution in each concentration were added to each well of the 96-well plate. One hour after the addition of each compound solution, 10 ng/mL of the TNF-α solution (10 μL) was added to each well of the 96-well plate. Three hours after the addition of 10 ng/mL of the TNF-α solution, 100 μL of Steady-Glo reagent (available from Promega, Cat No. E2510) was added to each well of the 96-well plate. After 30 to 90 minutes of the addition of the Steady-Glo reagent, the luminescence intensity of each well was detected by EnVision multilabel counter (available from PerkinElmer).

In general, IC50 refers to the concentration that gives 50% inhibition. Low values mean inhibition by little substance, high ones a need for much substance. As to `Cc1sc2c(c1C)C(c1ccc(Cl)cc1)=NN(Cc1cccc(F)n1)c1nnc(C)n1-2`, 33.6 nM corresponded to half-maximal inhibition (IC50). In other words, the double-digit nanomolar range.

The values above are taken from ChEMBL document CHEMBL5728846, “6H-thieno[2,3-e][1,2,4]triazolo[3,4-c][1,2,4]triazepine derivative” (2021).
